Reference: PMC10815578 (International Journal of Molecular Sciences, 2024)
Several values for one entry are separate records, joined by “and”; a condition that tells them apart may be missing. Equal values may be shown once. Read-outs that look alike come from different tables or passages of the source.

Columns and labels:
[1] = test system: OATP2B1; conditions: Supplementary table, ref previous reports (superscript numbers), cited from earlier work; for IC50: read-out: OATP2B1 IC50; for Ki: read-out: OATP2B1 Ki (asterisk)
[2] = target: T1, OATP4C1 (Homo sapiens, UniProt Q6ZQN7); assay: Inhibition of OATP4C1-mediated T3 uptake in OATP4C1/MDCKII cells; conditions: for inhibition at 10 min, 100 µM: human; for alteration of OATP4C1-mediated transport (in words): 100 µM (theaflavin 50 µM); for Ki: Ki for OATP4C1 (average)
T1 sequence (Q6ZQN7 1-724): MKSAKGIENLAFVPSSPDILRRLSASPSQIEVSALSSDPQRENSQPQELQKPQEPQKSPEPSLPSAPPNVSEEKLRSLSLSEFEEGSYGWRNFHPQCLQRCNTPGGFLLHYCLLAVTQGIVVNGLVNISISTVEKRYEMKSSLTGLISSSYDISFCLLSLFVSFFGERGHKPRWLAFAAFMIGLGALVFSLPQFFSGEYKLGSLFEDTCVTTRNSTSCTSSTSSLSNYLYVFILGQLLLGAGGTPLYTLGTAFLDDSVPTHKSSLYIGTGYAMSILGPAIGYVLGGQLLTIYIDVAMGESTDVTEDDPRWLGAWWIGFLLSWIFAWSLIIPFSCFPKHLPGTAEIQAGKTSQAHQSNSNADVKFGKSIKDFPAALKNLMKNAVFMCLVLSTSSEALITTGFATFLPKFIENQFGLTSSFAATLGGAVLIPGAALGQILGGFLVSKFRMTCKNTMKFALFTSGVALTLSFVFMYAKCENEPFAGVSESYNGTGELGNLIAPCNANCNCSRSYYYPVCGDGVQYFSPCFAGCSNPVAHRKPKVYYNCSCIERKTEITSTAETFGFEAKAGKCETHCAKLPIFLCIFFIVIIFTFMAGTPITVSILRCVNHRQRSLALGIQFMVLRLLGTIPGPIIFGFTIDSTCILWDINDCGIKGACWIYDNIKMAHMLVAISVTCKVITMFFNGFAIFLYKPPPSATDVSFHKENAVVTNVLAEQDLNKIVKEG
Experimental: Figure 3 Screening of the effect of food ingredients on OATP4C1-mediated transport. Cells were incubated with 1 µM T3 with or without food ingredients for 10 min at 37 °C. The concentration of the compounds was 100 µM, except for theaflavin (50 µM). The amount of OATP4C1-mediated uptake was calculated by subtracting the nonspecific uptake of T3 by mock cells from the total cellular uptake by OATP4C1-expressing cells. […] Dashed line represents 100% (control uptake in the absence of food ingredient).
The MDCKII cells transfected with OATP4C1 or an empty vector were established in our laboratory [18].
The cellular uptake of T3 was measured in monolayer cell cultures grown in 24-well plates. Cells were seeded at a density of 2.0 × 10^5 cells/well. Thereafter, the cells were incubated in a culture medium containing 5 mM sodium butyrate for 24 h before the uptake study. […] Cellular uptake was initiated by adding T3-containing KH buffer with or without each flavonoid. Uptake was terminated after 10 min by replacing the incubation buffer with ice-cold KH buffer. The cells were washed twice with ice-cold KH buffer. The concentration of T3 was measured using liquid chromatography/tandem mass spectrometry (LC/MS/MS). Cellular uptake was presented as the uptake amount divided by the amount of cellular protein quantified using the Bradford protein assay. The experiment was performed in triplicate (n = 3) and repeated three times. Flavonoids, except ellagic acid, were dissolved in dimethyl sulfoxide (DMSO) at a final concentration of less than 0.5%. A stock solution of ellagic acid (20 mM) was obtained by dissolving it in 0.05 M NaOH and was further diluted to 100 µM in KH buffer (the pH was adjusted to 7.4).
The experiment was performed in triplicate (n = 3) and repeated three times.

[3] = test system: OAT1; conditions: Supplementary table; ref previous reports (superscript numbers); cited from earlier work
[4] = test system: OAT3; conditions: Supplementary table; ref previous reports (superscript numbers); cited from earlier work
[5] = test system: OATP1B3; conditions: Supplementary table, ref previous reports (superscript numbers), cited from earlier work; for IC50: read-out: OATP1B3 IC50; for Ki: read-out: OATP1B3 Ki (asterisk)
[6] = test system: OATP1B1; conditions: Supplementary table, ref previous reports (superscript numbers), cited from earlier work; for IC50: read-out: OATP1B1 IC50; for Ki: read-out: OATP1B1 Ki (asterisk)
[7] = target: T1, OATP4C1; assay: Kinetic analysis of OATP4C1-mediated T3 uptake in the presence of inhibitors; type: cell-based; design: expressed in transfected cells; sodium butyrate induction before uptake
Experimental: Data are shown as the mean ± SE (n = 6). The kinetic curves were fitted to the Michaelis–Menten equation. […] Each curve represents the fitted line obtained by the kinetic analysis by JMP Pro 16.
The kinetic curves were fitted to the Michaelis–Menten equation. […] The experiment was performed in duplicate (n = 2) and repeated three times.

[8] = test system: P-gp; conditions: Supplementary table; ref 40 of the supplement; cited from earlier work
[9] = pH 7.4, probe T3 (1 µM), OATP4C1 inhibition degree, 100 µM, Supplementary table
[10] = pH 7.4, probe T3 (1 µM), inhibition of OATP4C1-mediated transport, 100 µM compound, 1 µM T3, 10 min, 37 °C, without AA

| inhibition at 10 min, 100 µM [2, 9] [%] | inhibition at 10 min, 100 µM [2, 10] [%] | OATP4C1 inhibition or elevation (class) ([2]; Supplementary table) | inhibitory effect on OATP4C1-mediated transport in the presence of AA compared with its absence ([2]; 100 µM compound, 10 µM AA) | SMILES | IC50 [1] | IC50 [5] [µM] | also measured |
| --- | --- | --- | --- | --- | --- | --- | --- |
|  |  | Elevation |  | O=c1oc2c(O)c(O)cc3c(=O)oc4c(O)c(O)cc1c4c23 [ellagic acid] |  |  | IC50 [3]: 0.207 µM; alteration of OATP4C1-mediated transport (in words) ([2]; 1 µM T3, 10 min, without AA): did not inhibit; elevation of OATP4C1-mediated transport ([2]; 100 µM compound, 1 µM T3, 10 min, 37 °C, without AA): 13%; OATP4C1 elevation degree ([2]; 100 µM, Supplementary table): 13% |
|  | 24 | No | weakened | O=c1c(O)c(-c2ccc(O)c(O)c2)oc2cc(O)ccc12 [fisetin] |  |  |  |
|  |  |  |  | O=C(O)c1cc(O)c(O)c(O)c1 [gallic acid, Gallic acid] |  | 1.6 ± 0.6 |  |
|  |  | Yes | weakened | O=c1c(-c2ccc(O)cc2)coc2cc(O)cc(O)c12 [genistein] |  |  | IC50 [6]: 14.9 ± 3.76 µM; inhibition at 10 min, 100 µM ([2]; pH 7.4): 42% |
|  |  |  |  | O=c1c(O)c(-c2ccc(O)cc2)oc2cc(O)cc(O)c12 [kaempferol] | 20.7 ± 1.8 µM |  | IC50 [6]: 32.4 µM and 33 µM; Ki [6]: 16 ± 1.9 µM; Ki [5]: 24.4 ± 1.8 µM; Ki [1]: 15.1 ± 7.8 µM; IC50 ([2]; IC50 for OATP4C1, AA(+) 10 µM, 1 µM T3, 10 min): 33.7 µM; IC50 ([2]; IC50 for OATP4C1, AA(−), 1 µM T3, 10 min): 29.3 µM; Ki ([2]; AA(+) 10 µM, 1 µM T3, 10 min): 28.8 µM; Ki ([2]; AA(−), 1 µM T3, 10 min): 25.1 µM; Vmax of OATP4C1-mediated T3 uptake in the presence of the inhibitor ([7]; inhibitor 30 µM, 10 µM AA, 10 min, 37 °C): 517 ± 92.6 pmol/mg Protein/10 min; manner of inhibition of OATP4C1-mediated T3 uptake ([7]; kinetic analysis): competitive manner |
| 52 | ≥ 50 | Yes | weakened | O=c1cc(-c2ccc(O)c(O)c2)oc2cc(O)cc(O)c12 [luteolin] | 0.42 µM |  | IC50 [4]: 4.2 µM |
| 57 | ≥ 50 | Yes | weakened | O=c1c(O)c(-c2ccc(O)cc2O)oc2cc(O)cc(O)c12 [morin] |  |  | IC50 [3]: < 0.3 µM and 0.5 µM |
| 46 | 46 |  |  | Oc1ccc(/C=C/c2cc(O)cc(O)c2)cc1 [resveratrol, Resveratrol] | 8.3 µM | 11.6 | IC50 [8]: 6.64 µM; IC50 [6]: 9.1 µM |

| SMILES | inhibition at 10 min, 100 µM [2, 9] [%] | inhibition at 10 min, 100 µM [2, 10] [%] | OATP4C1 inhibition or elevation (class) ([2]; Supplementary table) | inhibitory effect on OATP4C1-mediated transport in the presence of AA compared with its absence ([2]; 100 µM compound, 10 µM AA) | IC50 [1] | IC50 [5] [µM] | also measured |
| --- | --- | --- | --- | --- | --- | --- | --- |
| O=c1c(-c2ccc(O)cc2)coc2cc(O)ccc12 [daidzein] | 40 | 40 |  |  | 22.3 µM and 20.7 µM |  | OATP4C1 inhibition or elevation (class) [2]: Yes; inhibitory effect on OATP4C1-mediated transport in the presence of AA compared with its absence [2]: weakened |
| COc1cc(/C=C/C(=O)O)ccc1O [ferulic acid, Ferulic acid] |  |  | No |  |  |  | IC50 [3]: 9.01 µM; IC50 [4]: 7.35 ± 3.73 µM; alteration of OATP4C1-mediated transport (in words) ([2]; 1 µM T3, 10 min, without AA): did not inhibit |
| COc1cc(-c2oc3cc(O)cc(O)c3c(=O)c2O)ccc1O [isorhamnetin] |  |  | Yes | weakened | 0.82 µM | 3.1 | inhibition at 10 min, 100 µM ([2]; pH 7.4): 18% |
| O=c1c(O)c(-c2ccc(O)c(O)c2)oc2cc(O)cc(O)c12 [quercetin] | 50 | ≥ 50 | Yes | weakened |  | 3.22 | Ki [6]: 8.8 ± 0.8 µM; Ki [5]: 7.8 ± 1.7 µM; Ki [1]: 8.7 ± 0.1 µM |
